How the values were obtained:
NMDA toxicity in mice = assay: Prevention of NMDA neurotoxicity in mice (neurological scores); assay type: in vivo, mice (Balb/C); conditions: for maximum improvement of neurological scores: NMDA 60 mg/kg s.c., i.p. or i.v. pretreatment; for neurological scores/symptoms after NMDA toxicity: pretreated mice
Text: Blockade of NMDA toxicity in mice: Subcutaneous injection of NMDA in mice results in a dose-dependent increase in the number, severity and duration of several neurological symptoms, culminating in death at the higher dose range. The symptoms include tail flicks, circling, tremor and convulsions. The ability of various compounds, when administered to mice prior to NMDA, to reduce the number and severity of these symptoms is a considered a measure of their potency in preventing NMDA behavioral toxicity in vivo.
Test drugs were administered intraperitoneally at the stipulated doses in a solution of MCT oil. Each point represents the mean scores of eight mice treated with the drug compared to the same number of control animals receiving the vehicle alone.
Test compounds were administered at a standard dose of 10 mg/kg either intraperitoneally (in MCT oil) or intravenously (in a submicronized emulsion).
(§1) Bicyclic compounds of the present invention were tested for their ability to block NMDA toxicity in mice. Balb/C mice received NMDA by subcutaneous injection at a dose of 60 mg/kg which was determined to be the LD20 dose of this substance. Thirty minutes prior to injection of the neurotoxin the animals received either (a) an intravenous injection of the test drug formulated in submicronized emulsion as described in Example 11); (b) an intraperitoneal injection of the test drug dissolved in MCT oil; (c) or the appropriate vehicle alone (control groups). The improvement rate afforded by the test drug was defined as the difference between scores of animals receiving the formulated drug and those receiving the vehicle alone. The doses tested for HU-254, HU-259 and HU-260 ranged from 5 to 30 mg/kg.
At least 6-8 mice were included per test group. The materials were tested in a masked study to preclude bias of the observer of clinical symptoms.
The behavioral scoring method (tabulated above) was used as the basic quantitative procedure for evaluating the level of NMDA or kainic acid neurotoxicity in mice. The neurological clinical status of each animal was calculated by totalling the scores of all signs that were evident throughout the study. Duration of symptoms was also taken into account.
If duration of a neurological system is up to 30 seconds, the score is s-1. Duration between 0.5-3.0 mins, the score is s. Duration longer than 3 mins, the score is s+1.

[1] = test system: acetylcholine-muscarinic receptor; assay type: binding, rat; conditions: 100 μM analogue
[2] = test system: MK-801 sites located at the NMDA receptor ion channel; assay: Inhibition of [3H]MK-801 binding to rat forebrain membranes
Text: Binding to the NMDA receptor linked channel: Non competitive antagonists of NMDA, the primary example of which is the compound MK-801, bind to a site within the NMDA receptor channel thus preventing the activation of the receptor-channel complex and the consequent neurotoxicity. The ability of various compounds to compete with the binding of tritium labeled MK-801 to brain membranes is considered a measure of their potency as NMDA non-competitive antagonists.
The association of pinene derivatives with acetylcholine-muscarinic receptor and with MK-801 sites located at the NMDA receptor ion channel.
Inhibition of ^3 [H]MK-801 binding to rat forebrain membranes by the test HU-211 compounds was carried out as described for HU-211 in Eshhar et al., NeuroReport 5, No. 3, 1993) (Methods section). The test compounds were solubilized in a mixture of ethanol:Emulfor:water (20:3:57).

cannabimimetic activity = conditions: cited from earlier work
Balb/C mice = assay: Lethality of subcutaneous NMDA in mice; assay type: in vivo; conditions: subcutaneous injection
Description: as §1

Rat brain NMDA receptors = assay: Blockade of NMDA response in Xenopus oocytes injected with rat brain RNA; assay type: biochemical
Text: Blockade of NMDA-induced voltage changes in Xenopus oocytes: Frog oocytes can be injected with genetic material from various species and organs, resulting in the expression of the various molecules encoded by this material in the oocyte. Injection of rat brain RNA provides active NMDA receptors on the ooctye surface. Application of NMDA results in changes in the electrical activity recorded from the oocytes. Various NMDA antagonists block the NMDA-induced changes in electrical activity and their potency and dose dependence in this system indicate their potency and mode of action as NMDA antagonists.
The oocyte is the most widely used system for studying the molecular, biophysical and pharmacological properties of expressed voltage- or transmitter-operated ion channels. This giant cell offers several advantages for this type of studies. It can be readily used for two-electrode voltage clamp studies, translates injected mRNA from different sources and functionally expresses the translated proteins, and it is also readily amenable for intracellular micron injections. Importantly, the recordings of neurotransmitter- or voltage-induced currents in a single oocyte are extremely stable and can performed repeatedly for 2-3 hours; this allows the performance of a full dose-response relation in single oocytes.
Rat brain NMDA receptors were expressed in Xenopus oocytes injected with total rat brain RNA. Dascal and Lotan. The conditions for injection culture and electrical recording from oocytes were as described by Dascal and Lotan (in: Methods in Molecular Biology, Longstaff and Revest, eds. Vol. 13, Chapter 13, Humana Press, N.J., 1992).
Briefly, female Xenopus were anesthetized by immersion in water containing 0.15% tricaine methanesulfonate and a small incision was made in the lower abdomen. Ovary fragments were removed into ND-96.
The oocytes were defolliculated by the collagenase treatment in order to remove the follicle cell layer. Defolliculated oocytes were injected with total rat brain RNA and incubated for 2-4 days at 22° C. in sterile NDE-96 solution. ND-96 solution contains (in mM): NaCl - 96, KCl - 2, CaCl2 - 1.8, Hepes - 5 (pH=7.4-7.6). NDE-96 contains in addition, 2.5 mM sodium pyruvate, 100 unit/ml penicillin, 100 μg/ml streptomycin. A single oocyte was placed in a 1 ml bath constantly superfused with ND-96 solution at room temperature. The cell was impaled with two microelectrodes and held at membrane potential of -60 mV using voltage clamp circuit.
RNA was extracted from the brain of 14-day old rat brain. Each oocyte was injected with 50 nl total RNA (4-8 mg/ml in water, stored at -80° C. in […] aliquots).
NMDA receptors were activated by application of NMDA with glycine in Mg-free ND-96 solution. It was shown previously and also observed in this study that the entry of calcium ions through the NMDA receptor-channel evokes a Ca-dependent Cl^- current which appeared as an early inward current peak preceding and overlapping the actual NMDA response and hindering a quantitative pharmacological study of NMDA antagonists. Experimental conditions were therefore worked out aimed at eliminating the Cl^- current. The best protocol employed the use of Ca-free, Ba-containing solution, avoiding repetitive application of antagonists, as well as other conditions including optimal perfusion rate and optimal intervals between repetitive NMDA applications.
Several NMDA receptor blockers were tested. These compounds have […] and have to be dissolved in 100% dimethyl sulfoxide (DMSO) and diluted for use in ND-96 that contained 1% DMSO. Therefore, the effect of 1% DMSO on the response to 10^-4 M NMDA and 5×10^-6 M glycine was examined. DMSO had no effect on NMDA response in three different cells.
Eight putative NMDA antagonists of the HU group, including 270, 271 and 259 were tested for anti-NMDA activity at a glutamate receptor. […]

[3] = test system: CA1 hippocampal region in gerbils; conditions: injected after the ischemic insult; Bar-Joseph et al. 1993; cited from earlier work
[4] = test system: intraocular pressure (IOP); conditions: in vivo; cited from earlier work
AMPA/kainate receptors = assay: Effect on kainate responses in oocytes; assay type: biochemical, rat
GABA receptors = assay: Effect on GABA responses in oocytes; assay type: biochemical, rat
[5] = test system: voltage-dependent P-type calcium channels; assay: Inhibition of voltage-dependent P-type calcium channels expressed in oocytes; assay type: biochemical, rat
[6] = test system: intraocular pressure (IOP); assay: Ocular hypotensive activity (intraocular pressure) in albino rabbits; assay type: in vivo, albino rabbit; conditions: for Max ΔIOP: ** drug vs. vehicle P < 0.01
Description: Bicyclic compounds of the present invention were also tested for IOP lowering effects.
Sci., 82, 1069-1079 (1993).
The phospholipids and HU-259 were dissolved in the stabilized oily phase. The other excipients were dissolved in the aqueous phase. Both phases were heated separately to 70° C. and dispersed by a magnetic stirrer. Emulsification was completed using a "high speed mixer" for 5 min at 85° C. The resulting emulsion was cooled rapidly below 20° C. and homogenized using a two-stage homogenizing valve assembly (Gaulin Homogenizer, APV Gaulin, Hilversum, The Netherlands) for 5 min. All the manufacturing procedures were carried out under aseptic conditions and a nitrogen atmosphere. The pH was adjusted to 7.4 using a sodium hydroxide solution (10%). The final fine emulsion was filtered to achieve sterility and stored in ampoules. A typical formulation (%, w/w) consisted of the following: HU-259, 0.2%; oily phase, 20.0%; purified fractionated egg phospholipids, 1.2%; nonionic emulsifier, 2%; glycerin, 2.25%; α-tocopherol, 0.02%; methyl and butyl p-hydroxy- benzoic ester, 0.3 and 0.075%, respectively; and water for injection, to 100.0 g. The control emulsion vehicle was prepared using identical experimental conditions but without drug.
IOP was measured by using a pneumatonometer (Digilab T30). Pressure readings were calibrated for verification every 6 h. One drop (50 μl) of local anesthetic (Benoxinate HCl, 0.4% Fischer [Isr] diluted 1:3 with sterile saline) was instilled into each eye prior to IOP measurements.

cannabinoid receptors = conditions: Devane et al. 1992; cited from earlier work
[7] = test system: closed head injury, a model of head trauma; conditions: Shohami et al. 1993; cited from earlier work
[8] = test system: NMDA-induced tremor, seizures and lethality in mice; conditions: Feigenbaum et al. 1989; cited from earlier work
[9] = test system: rat brain cortical membrane preparations; conditions: cited from earlier work
[10] = test system: NMDA receptor linked ion channel; conditions: Nadler et al. 1993; cited from earlier work

For CCCCCCC(C)(C)c1cc(OC(C)=O)c([C@H]2C=C(COC(C)=O)[C@H]3C[C@@H]2C3(C)C)c(OC(C)=O)c1 [HU-254], the “maximum improvement of neurological scores” value (NMDA toxicity in mice) was 30-40%, the “maximum improvement rate on the neurological scores” value (NMDA toxicity in mice; i.p. dose of 20 mg/kg) was 25% and the “effect of route of administration on performance” value (NMDA toxicity in mice; i.v. vs i.p.) was “significantly enhanced by i.v. administration”. For the same molecule, the “neurological scores/symptoms after NMDA toxicity” value (NMDA toxicity in mice) was “improvement in neurological scores”, the “% inhibition of tritiated ligand binding to membranes, 3[H]QNB” value [1] was 96.1% and the “% inhibition of tritiated ligand binding to membranes, 3[H]-MK-801” value ([2]; 100 μM analogue) was 5.3%.
For CCCCCCC(C)(C)c1cc(OC(C)=O)c([C@H]2C=C(CO)[C@H]3C[C@@H]2C3(C)C)c(OC(C)=O)c1 [HU-260], the “maximum improvement of neurological scores” value (NMDA toxicity in mice) was 30-40% and the “neurological scores/symptoms after NMDA toxicity” value (NMDA toxicity in mice) was “improvement in neurological scores”.
For CCCCCCC(C)(C)c1ccc([C@@H]2C[C@H](O)CC[C@H]2CCCO)c(O)c1 [CP-55940], the cannabimimetic activity (cannabimimetic activity) is given as “found to produce cannabimimetic effects”.
In the case of CN[C@H](CC(=O)O)C(=O)O [NMDA, N-methyl-D-aspartate], the LD20 dose (Balb/C mice) is reported as 60 mg/kg.
In the case of CCCCCCC(C)(C)c1cc(O)c2c(c1)OC(C)(C)[C@@H]1CC=C(CO)C[C@@H]21 [HU-210, 1,1 dimethylheptyl (DMH) homolog of [3R,4R]-7-hydroxy Δ^6 THC, reference compound], the cannabimimetic activity (cannabimimetic activity) is listed as “two orders of magnitude higher than the natural Δ^1 THC”, the “% inhibition of NMDA” value (Rat brain NMDA receptors; 10 μM) is listed as 0% and the “inhibitory effects on NMDA response” value (Rat brain NMDA receptors; concentrations up to 10 μM) is listed as “did not have any inhibitory effects”.
For CCCCCCC(C)(C)c1cc(O)c2c(c1)OC(C)(C)[C@H]1CC=C(CO)C[C@H]21 [HU-211, 7-hydroxy-Δ^6-tetrahydrocannabinol 1,1-dimethylheptyl, reference compound], the “neuronal cell damage in CA1 hippocampal region” value [3] is listed as “prevent neuronal cell damage”, the “lowering of intraocular pressure” value [4] is listed as “lowering of intraocular pressure (IOP)” and the cannabimimetic activity (cannabimimetic activity) is listed as “inactive as a cannabimimetic”. For the same molecule, the “effect on kainate responses” value (AMPA/kainate receptors) was “no effect”, the “effect on GABA responses” value (GABA receptors) was “no effect” and the “inhibition of activity of voltage-dependent P-type calcium channels” value [5] was “did not inhibit”. The “AUC (from instillation of treatment until return to baseline IOP)” value ([6]; contralateral eye) was -4.9 ± 7.0 mmHg × hrs, the “Max ΔIOP” value ([6]; contralateral eye) was -2.0 ± 1.1 mmHg and the “AUC (from instillation of treatment until return to baseline IOP)” value ([6]; treated eye) was -9.5 ± 6.0 mmHg × hrs. For the same molecule, the “Max ΔIOP” value ([6]; treated eye, single dose 0.2% emulsion) was -2.9 ± 0.7 mmHg, the “affinity to the cannabinoid receptors” value (cannabinoid receptors) was “very low affinity” and the “% inhibition of NMDA” value (Rat brain NMDA receptors; 1 μM) was 32%. The “% inhibition of NMDA” value (Rat brain NMDA receptors; 10 μM) was 47%, the “mode of NMDA antagonism” value (Rat brain NMDA receptors; Lineweaver-Burke analysis) was “non-competitive NMDA antagonists” and the “concentration at which inhibitory activity was first apparent” value (Rat brain NMDA receptors; NMDA response) was 10 nM. For the same molecule, the “extent of edema formation and overall neurological damage” value [7] was “significantly reduced”, the “block of NMDA-induced tremor, seizures and lethality” value [8] was “block NMDA-induced tremor, seizures and lethality in mice” and the “increase in binding of [3H]TCP induced by polyamines, glutamate or glycine” value [9] was “blocked the increase in binding”. The “NMDA induced uptake of 45Ca++ ions” value [10] was “block the NMDA induced uptake” and the Ki ([2]; [3H]MK801 binding, rat forebrain membranes, representative experiment in triplicate (HU259), read-out: inhibition constant (K1)) was 11.3 µM.
For COc1ccc(C(=O)c2c(C)n(CCN3CCOCC3)c3ccccc23)cc1 [pravadoline], the cannabimimetic activity (cannabimimetic activity) is listed as “found to produce cannabimimetic effects”.

Reference: patent publication US5434295A (priority 1994, dated 1995)
